Assay results from patent US20120171123A1, “USES AND COMPOSITIONS FOR TREATMENT OF RHEUMATOID ARTHRITIS” (priority 2006, published 2012).
Where two headings read alike, the source gives them in different places. Marks after values point to notes of the source that are not given here.

What was measured:
[1] = tested on: patients with long-standing RA; test: Study 4: change in dosing of concomitant corticosteroids and methotrexate; assay type: in vivo, human
Text: The mean corticosteroid dose (mg/day) at baseline was 5.56, where the mean corticosteroid dose (mg/day) at the final dose was 3.57 (p<0.0001 (determined by Wilcoxon's signed rank test)).
There was also a change in the dosing of concomitant methotrexate for RA patients in the study being treated with adalimumab. […] For only 8% of patients was the dose of mtx increased.

[2] = tested on: patients with moderate to severe rheumatoid arthritis; test: Study C: medically relevant adverse events; assay type: in vivo, human
Method: The Canadian Adalimumab Clinical Trial (Study C) was an open-label, multi-center, Phase IIIb study conducted in Canada. […] Efficacy and safety were assessed at baseline, 4, 8, and 12 weeks. Efficacy assessments included tender joint count (TJC 0-28), swollen joint count (SJC 0-28), Disease Activity Score 28 (DAS28), Health Assessment Questionnaire (HAQ), and EULAR response. […] The sample size for each outcome variable is based on the data available at the time of the analysis. The data from this preliminary analysis were compared with the Week 12 data from Study A (N=2008).

patients with RA = test: RAPID (routine Apgar-like patient index datasheet) score in 4 adalimumab clinical trials; assay type: in vivo, human; details: for RAPID (R326), Difference: baseline vs endpoint
Method: All 1,391 patients in these trials were evaluated in this study. The RAPID index is based on patient self-report data on a Health Assessment Questionnaire (HAQ), recalibrated to 0-10, based on the following criteria: physical function (0-3): 0=0-0.25, 1=0.26-0.75, 2=0.76-1.5, and 3=1.51-3.0; pain visual analog scale (VAS) (0-3): 0=0-10, 1=11-30, 2=31-60, and 3=61-100; and patient's global status VAS (0-4): 0=0-10, 1=11-25, 2=26-50, 3=51-75, and 4=76-100. All patients were classified at baseline as having a DAS28<5.1 or ≧5.1 or RAPID <5.0 or ≧5.0, the higher values for each indicating severe disease. DAS28 was calculated using swollen joint count, tender joint count, patient's global assessment of disease activity and C-reactive protein (CRP) concentration. Spearman rank correlations and box plots to compare RAPID scores with DAS28 were also analyzed.
Several rescalings of the physical function, pain, and patient's global assessment scales were calculated. The physical function scale is scored 0-3, and was rescaled to 0-3. The pain visual analog scale (VAS) is scored 0-10 and was also rescaled to 0-3. The global VAS is scored 0-10 and was rescaled to 0-4. Thus, the total of the 3 scores ranges from 0-10. Scores were calculated for both continuous and categorical indices. The DAS28 was calculated from the SJC, TJC, patient's global score, and C-reactive protein.

[3] = tested on: patients with active rheumatoid arthritis; details: Study A (N=2008), 12 weeks; cited from earlier work
[4] = tested on: RA patients treated with adalimumab in clinical trials in North America and Europe
Method: The rate of TB was calculated for the period before screening was initiated (primarily Phase I trials) and the period after screening was implemented. The screening program consisted of a clinical interview, a tuberculin skin test, and, in most patients, a chest X-ray (CXR). The definition of PPD-positive depended on local country-specific guidelines. For those people who were PPD-positive, or for whom the investigator felt the risk of TB reactivation was high, INH was given for prophylaxis.
The methodology differed among protocols. For instance, in Europe and Australia, it was initially used CXR only, and in later studies, CXR and purified protein derivative skin test (PPD) were both used. By contrast, in US and Canada, CXR and PPD were both used.

[5] = tested on: MTX-naïve adult patients with early RA (<3 years); test: Study J: FACIT-F fatigue; assay type: in vivo, human; details: for FACIT-F mean change from baseline: LOCF
Text: The Health Assessment Questionnaire Disability Index (HAQ DI) is a disease-specific tool that measures patient-reported physical function in 8 categories corresponding to normal activities in daily living. Fatigue is an important yet still often overlooked systemic symptom of RA. The Functional Assessment of Chronic Illness Therapy-Fatigue (FACIT-F) tool, measured by a 13-item, validated scale, assesses the impact of a disease and its therapy on fatigue.
Study J is described in detail in the above examples. The Health Assessment Questionnaire Disability Index (HAQ DI) and Functional Assessment of Chronic Illness Therapy-Fatigue (FACIT-F) were assessed at baseline, and following 12, 26, 42, 52, 76, and 104 weeks of therapy. Changes in scores were computed by subtracting the baseline from post-treatment score for each patient; mean changes were reported for each treatment group. The HAQ DI is assessed on a scale of 0-3, with higher numbers indicating greater disability. The minimum clinically important difference (MCID) is defined as changes ≧0.22 (Goldsmith C H, et al. J Rheumatol 1993; 20-561-5). The FACIT-F is assessed on a scale of 0-52, with higher scores indicating less fatigue. Changes of ≧4 are considered clinically meaningful (Cella D, et al. J Pain Symptom Manage 2002:24:547-61).

[6] = Study 2 (adalimumab monotherapy)
[7] = Study K (adalimumab with other DMARDs)
[8] = US/Canada and Europe RA trials through December 2004

With “adalimumab: human anti-TNF mAb (HUMIRA, Abbott Laboratories), described in U.S. Pat. No. 6,090,382 as D2E7” the “mean concomitant corticosteroid dose” value ([1]; at final dose (baseline 5.56)) was 3.57 mg/day, the “mean concomitant mtx dose” value ([1]; at final dose of adalimumab (baseline 15.79)) was 13.81 mg/week and the “patients with dose reduction of steroids” value ([1]; n=294) was 29%. The “patients with increased steroid dose” value ([1]; n=294) was 6%, the “patients with unchanged steroid dose” value ([1]; n=294) was 40% and the “patients with increased mtx dose” value ([1]; n=546) was 8%. The “patients with mtx dose reduction” value ([1]; n=546) was 32%, the “patients with unchanged mtx dose” value ([1]; n=546) was 60% and the “patients able to discontinue steroids” value ([1]; patients on concomitant corticosteroids, n=294) was 24%. For the same compound, the “Infections: Influenza, number” value ([2]; Study C (n=879)) was “Influenza (1)”, the “Infections: Pneumonia, number” value ([2]; Study C (n=879)) was “Pneumonia (3)” and the “Infections: Post-operative infections, number” value ([2]; Study C (n=879)) was “infections (3)”. The “Infections: Pyelonephritis, number” value ([2]; Study C (n=879)) was “Pyelonephritis (1)”, the “Infections: Sinusitis, number” value ([2]; Study C (n=879)) was “Sinusitis (1)” and the “Medically relevant adverse events: Congestive heart failure, %” value ([2]; Study C (n=879)) was 0.1%. The “Medically relevant adverse events: Congestive heart failure, number” value ([2]; Study C (n=879)) was 1, the “Infections: Atypical infection (nodules), number” value ([2]; in vivo) was “(nodules) (1)” and the “Infections: Infected prosthesis, number” value ([2]; in vivo) was “Infected prosthesis (1)”. For the same compound, the “Medically relevant adverse events: Infections, %” value ([2]; in vivo) was 1.3%, the “Medically relevant adverse events: Infections, number” value ([2]; in vivo) was 11 and the “Medically relevant adverse events: Malignancies, %” value ([2]; in vivo) was 0.2%. For the same compound, the “Medically relevant adverse events: Malignancies, number” value ([2]; in vivo) was 2, the “RAPID (R326), Endpoint” value (patients with RA; Study 1 (adalimumab with MTX)) was 3.86 and the “RAPID (R326), Difference” value (patients with RA; Study 1 (adalimumab with MTX)) was 3.22. The “RAPID (R326), Endpoint” value (patients with RA; [6]) was 5.88, the “RAPID (R326), Difference” value (patients with RA; [6]) was 2.70 and the “RAPID (R326), Endpoint” value (patients with RA; Study I (adalimumab with MTX)) was 3.84. The “RAPID (R326), Difference” value (patients with RA; Study I (adalimumab with MTX)) was 3.43, the “RAPID (R326), Endpoint” value (patients with RA; [7]) was 4.22 and the “RAPID (R326), Difference” value (patients with RA; [7]) was 2.79. For the same compound, the “EULAR response, % good” value [3] was 34%, the “EULAR response, % moderate” value [3] was 82% and the “TB cases: Culture positive” value [4, 8] was 62%. The “TB cases: Extrapulmonary” value [4, 8] was 65%, the “TB: Total Cases” value [4, 8] was 34 and the “TB cases: Median months from treatment to diagnosis (range)” value ([4]; US/Canada and Europe RA trials through December 2004, range 1-54) was 7.2 months (1-54). The “cases of TB” value ([4]; after screening) was 27 cases, the “rate of TB” value ([4]; after screening, 14,010 pt-yrs) was 0.0019 /pt-yr and the “rate of TB” value ([4]; after screening, Europe) was 0.0027. The “rate of TB” value ([4]; after screening, North America) was 0.0008, the “cases of TB” value ([4]; before screening) was 7 cases and the “rate of TB” value ([4]; before screening, 534 pt-yrs) was 0.013 /pt-yrs. The “reduction in the rate of developing TB with screening” value ([4]; human, in vivo) was 85%, the “TB cases: Outcome Resolved” value ([4]; of 34 cases, one patient died of unrelated causes) was 32** and the “median time to the development of TB” value ([4]; range 14-1636) was 167 days.

In the case of `CN(Cc1cnc2nc(N)nc(N)c2n1)c1ccc(C(=O)N[C@@H](CCC(=O)O)C(=O)O)cc1` [mtx alone, methotrexate], the FACIT-F mean score ([5]; Baseline) is reported as 29.0, the “FACIT-F mean change from baseline” value ([5]; ΔWeek 12) is reported as 7.8 and the “FACIT-F mean change from baseline” value ([5]; ΔWeek 26) is reported as 9.5. For the same compound, the “FACIT-F mean change from baseline” value ([5]; ΔWeek 42) was 9.3, the “FACIT-F mean change from baseline” value ([5]; ΔWeek 52) was 9.0 and the “FACIT-F mean change from baseline” value ([5]; ΔWeek 76) was 8.5. The “FACIT-F mean change from baseline” value ([5]; ΔWeek 104) was 8.8.
